Patent US10947188B2, “Small molecule ferroptosis inducers” (THE TRUSTEES OF COLUMBIA UNIVERSITY IN THE CITY OF NEW YORK, priority 2016, dated 2021)
Converted amounts (≈) assume the structure as drawn.

Tested on: HT-1080 cells
Experiment: Lethality of commercially available CIL41/70 structural analogs
Type: cell-based
Settings: tested once in technical triplicates; for EC50: Homo sapiens
Experimental: 1,000 cells per 36 μl were seeded in each well in 384-well plates. Lethal compounds were dissolved, and a twofold, 12-point dilution series was prepared in DMSO. Compound solutions were further diluted with media at 1:25, and 4 μl per well of the diluted solutions was added to cell cultures immediately after cells were seeded. […] When other cell-death-modulating compounds (100 nM sodium selenite, 1 μM cerivastatin, 100 μg/mL mevalonic acid) were used in cotreatments, they were supplemented to cell culture for 24 h before lethal compounds were added to cell culture, after which cells were further incubated for 24 h at 37° C. under 5% CO2. On the day of the viability measurement, we added 10 μl per well of 50% Alamar Blue diluted in media (Life Technologies) and further incubated the cells at 37° C. for 6 h. Fluorescence intensity (excitation/emission: 530/590) was measured with a Victor 3 plate reader (PerkinElmer), and the normalized viability was calculated as VL=(IL−I0)/(IV−I0), where VL, I0, IV, and IL are the normalized viability and the raw fluorescence intensities from the wells containing media, cells treated with a vehicle (negative control), and cells with the lethal compound (L), respectively. When the effect of a chemical modulator (M) on L was calculated, we instead used the equation VL|M=(IM,L−I0)/(IM,V−I0), where VL|M, IM,L and IM,V are the normalized viability, and fluorescence intensity from cells treated with […], respectively. The viability was typically measured in biological triplicate unless otherwise specified. A representative dose-response curve, the mean and standard error of normalized viability from one replicate were plotted. HT-1080 viability after modulator treatments corresponding to FIG. 3C and FIGS. 5E-5F is available in FIGS. 19A-19C.
Their lethality was tested once in HT-1080 cells in technical triplicates.

COc1ccccc1CC(=O)O/N=C(\N)Cc1ccc([N+](=O)[O-])cc1 [CB99]
EC50: > 20 µg/mL

N/C(Cc1ccc(Cl)cc1Cl)=N\OC(=O)Cc1cccs1 [CB100]
EC50: > 20 µg/mL

COc1ccccc1OCC(=O)O/N=C(\N)Cc1ccc(Cl)cc1Cl [CB101]
EC50: > 20 µg/mL

Cc1cc(OCC(=O)O/N=C(\N)Cc2cccc3ccccc23)cc(C)c1Br [CB102]
EC50: > 20 µg/mL

N/C(Cc1ccc([N+](=O)[O-])cc1)=N\OC(=O)Cc1cccs1 [CB103]
EC50: > 20 µg/mL

Cc1cc(Br)ccc1OCC(=O)O/N=C(\N)Cc1ccc([N+](=O)[O-])cc1 [CB104]
EC50: > 20 µg/mL

N/C(Cc1cccc2ccccc12)=N\OC(=O)CCC1CCCCC1 [CB105]
EC50: > 20 µg/mL

Cc1cc(OCC(=O)O/N=C(\N)Cc2ccc(Cl)cc2Cl)cc(C)c1Br [CB106]
EC50: > 20 µg/mL

Cc1cc(Br)ccc1OCC(=O)O/N=C(\N)Cc1cccc2ccccc12 [CB107]
EC50: > 20 µg/mL

COc1ccccc1CC(=O)O/N=C(\N)Cc1cccc2ccccc12 [CB108]
EC50: > 20 µg/mL

N/C(Cc1cccc2ccccc12)=N\OC(=O)Cc1cccs1 [CB109]
EC50: > 20 µg/mL

Cc1cc(Br)ccc1OCC(=O)O/N=C(\N)Cc1ccc(Cl)cc1Cl [CB110]
EC50: > 20 µg/mL

CCC(C(=O)O/N=C(\N)Cc1cccc2ccccc12)c1ccccc1 (centres unmarked) [CB111]
EC50: 10.7 µg/mL (≈ 30.9 µM)

Cc1cccc(OCC(=O)O/N=C(\N)Cc2ccc(Cl)c(Cl)c2)c1C [CB112]
EC50: > 20 µg/mL

CC(C)(Oc1ccc(Cl)cc1)C(=O)O/N=C(\N)Cc1cccc2ccccc12 [CB113]
EC50: > 20 µg/mL

N/C(Cc1cccc2ccccc12)=N\OC(=O)Cc1ccccc1[N+](=O)[O-] [CB114]
EC50: > 20 µg/mL

N/C(Cc1ccc([N+](=O)[O-])cc1)=N\OC(=O)CC(c1ccccc1)c1ccccc1 [CB115]
EC50: 2.42 µg/mL (≈ 6 µM)

CC(C)(Oc1ccc(Cl)cc1)C(=O)O/N=C(\N)Cc1ccc(Cl)c(Cl)c1 [CB116]
EC50: 5.49 µg/mL (≈ 13.2 µM)

CC(C)(Oc1ccc(Cl)cc1)C(=O)O/N=C(\N)Cc1ccc([N+](=O)[O-])cc1 [CB117]
EC50: > 20 µg/mL

Cc1cccc(OCC(=O)O/N=C(\N)Cc2ccc([N+](=O)[O-])cc2)c1C [CB118]
EC50: > 20 µg/mL

CC(C)(Oc1ccc(Cl)cc1)C(=O)O/N=C(\N)Cc1ccc(Cl)cc1Cl [CB119]
EC50: > 20 µg/mL

Cc1cccc(OCC(=O)O/N=C(\N)Cc2ccc(Cl)cc2Cl)c1C [CB120]
EC50: > 20 µg/mL

Cc1cc(C)c(C)c(OCC(=O)O/N=C(\N)Cc2cccc3ccccc23)c1 [CB121]
EC50: > 20 µg/mL

COc1ccccc1C/C(N)=N/OC(=O)CC(c1ccccc1)c1ccccc1 [CB122]
EC50: 0.98 µg/mL (≈ 2.52 µM)

COc1ccccc1C/C(N)=N/OC(=O)COc1cccc(C)c1C [CB123]
EC50: > 20 µg/mL

COc1ccc(CC(=O)O/N=C(\N)Cc2ccc(OC)c(OC)c2)cc1 [CB124]
EC50: > 20 µg/mL

Cc1cc(Cl)ccc1OCC(=O)O/N=C(\N)Cc1ccc([N+](=O)[O-])cc1 [CB125]
EC50: > 20 µg/mL

COc1ccccc1C/C(N)=N/OC(=O)COc1cc(C)cc(C)c1C [CB126]
EC50: 9.3 µg/mL (≈ 26.1 µM)

N/C(Cc1ccc(Cl)cc1Cl)=N\OC(=O)Cc1ccccc1 [CB127]
EC50: > 20 µg/mL

N/C(Cc1ccc(Cl)cc1Cl)=N\OC(=O)CC1CCCCC1 [CB128]
EC50: > 20 µg/mL

CCc1ccc(OCC(=O)O/N=C(\N)Cc2ccc([N+](=O)[O-])cc2)c(Br)c1 [CB129]
EC50: > 20 µg/mL

CC(C)c1ccc(OCC(=O)O/N=C(\N)Cc2ccc([N+](=O)[O-])cc2)c(Br)c1 [CB130]
EC50: > 20 µg/mL

N/C(Cc1cccc2ccccc12)=N\OC(=O)CSc1ccccc1 [CB131]
EC50: > 20 µg/mL

Cc1ccc(CC(=O)O/N=C(\N)Cc2cccc3ccccc23)cc1 [CB132]
EC50: > 20 µg/mL

N/C(Cc1ccc(Cl)cc1Cl)=N\OC(=O)CSc1ccccc1 [CB133]
EC50: > 20 µg/mL

CC(Oc1cccc(Cl)c1)C(=O)O/N=C(\N)Cc1cccc2ccccc12 (centres unmarked) [CB134]
EC50: > 20 µg/mL

N/C(Cc1ccc([N+](=O)[O-])cc1)=N\OC(=O)CCCOc1ccccc1 [CB135]
EC50: > 20 µg/mL

CCC(Oc1ccccc1)C(=O)O/N=C(\N)Cc1ccc([N+](=O)[O-])cc1 (centres unmarked) [CB136]
EC50: > 20 µg/mL

CC(Oc1cccc(Cl)c1)C(=O)O/N=C(\N)Cc1ccc(Cl)cc1Cl (centres unmarked) [CB137]
EC50: > 20 µg/mL

N/C(Cc1ccc(Cl)cc1Cl)=N\OC(=O)CCCOc1ccccc1 [CB138]
EC50: > 20 µg/mL

Cc1ccc(CC(=O)O/N=C(\N)Cc2ccc([N+](=O)[O-])cc2)cc1 [CB139]
EC50: > 20 µg/mL

CCC(Oc1ccccc1)C(=O)O/N=C(\N)Cc1ccc(Cl)cc1Cl (centres unmarked) [CB140]
EC50: 8.56 µg/mL (≈ 22.5 µM)

N/C(Cc1ccc([N+](=O)[O-])cc1)=N\OC(=O)CSc1ccccc1 [CB141]
EC50: > 20 µg/mL

Cc1ccc(CC(=O)O/N=C(\N)Cc2ccc(Cl)cc2Cl)cc1 [CB142]
EC50: > 20 µg/mL

COc1ccc(CC(=O)O/N=C(\N)Cc2ccc(Cl)c(Cl)c2)cc1OC [CB143]
EC50: > 20 µg/mL

N/C(Cc1ccc([N+](=O)[O-])cc1)=N\OC(=O)COc1ccc(Cl)cc1Br [CB144]
EC50: > 20 µg/mL

CC(=O)O/N=C(N)\C(=N/Nc1ccccc1)[N+](=O)[O-] [CB145]
EC50: > 20 µg/mL

CC(=O)O/N=C(/N)Cn1nc(C)c([N+](=O)[O-])c1C [CB146]
EC50: > 20 µg/mL

Cc1nn(C/C(N)=N/OC(=O)C23CC4CC(CC(C4)C2)C3)c(C)c1[N+](=O)[O-] [CB147]
EC50: 4.88 µg/mL (≈ 13 µM)

CCC(=O)O/N=C(\N)Cn1nc(C)c([N+](=O)[O-])c1C [CB148]
EC50: > 20 µg/mL

Cc1ccc(Cl)cc1N1CCN(C/C(N)=N/OC(=O)CCC(=O)NC2CCCCC2)CC1 [CD1]
EC50: > 20 µg/mL

COc1ccc(/C=C(\C#N)C(=O)O/N=C2\CCCCCN2)cc1 [EN1]
EC50: > 20 µg/mL

COc1ccc(/C=C/C(=O)O/N=C2\CCCCCN2)cc1OC [EN2]
EC50: 10.5 µg/mL (≈ 33 µM)

O=C(O/N=C1\CCCCCN1)C(Cl)Cl [EN3]
EC50: > 20 µg/mL

CC(Cl)(Cl)C(=O)O/N=C1\CCCCCN1 [EN4]
EC50: > 20 µg/mL

Cc1ccccc1NC(=O)C/C(N)=N/OC(=O)C1CCCN1C(=O)c1ccco1 (centres unmarked) [EN5]
EC50: > 20 µg/mL

N/C(=N\OC(=O)C1CCCN1C(=O)c1cccs1)C(c1ccccc1)c1ccccc1 (centres unmarked) [EN6]
EC50: > 20 µg/mL

N/C(COc1ccccc1)=N\OC(=O)C1CCCN1C(=O)c1ccco1 (centres unmarked) [EN7]
EC50: > 20 µg/mL

N/C(=N\OC(=O)Cc1ccccc1F)C12CC3CC(CC(C3)C1)C2 [EN8]
EC50: > 20 µg/mL

N/C(CC(=O)NC1CCCCC1)=N\OC(=O)C1CCCN1C(=O)c1cccs1 (centres unmarked) [EN9]
EC50: > 20 µg/mL

Cc1cccc(NC(=O)C/C(N)=N/OC(=O)C2CCCN2C(=O)c2ccco2)c1C (centres unmarked) [EN10]
EC50: > 20 µg/mL

Cc1cc(C)cc(C(=O)NCC(=O)O/N=C(\N)CC(=O)Nc2ccc(Cl)cc2)c1 [EN11]
EC50: > 20 µg/mL

NC(/C=C/c1cc(C(F)(F)F)cc(C(F)(F)F)c1)=N\OC(=O)/C=C/c1ccccc1 [MB1]
EC50: > 20 µg/mL

COc1ccc(OCC(N)=NOC(=O)CON=C(C)c2ccc(Cl)cc2)cc1 [MB2]
EC50 of CIL41/70 and structural analogs (lethality): MB2 (>20 ug/mL)

CC(=NOCC(=O)ON=C(N)COc1cccc(Cl)c1)c1ccc(Cl)cc1 [MB3]
EC50 of CIL41/70 and structural analogs (lethality): MB3 (>20 ug/mL)

CC(=NOCC(=O)ON=C(N)COc1ccc(Cl)cc1Cl)c1ccc(Cl)cc1 [MB4]
EC50 of CIL41/70 and structural analogs (lethality): MB4 (>20 ug/mL)

CC(=O)O/N=C(\N)Cc1csc2ccc(Cl)cc12 [MB5]
EC50: > 20 µg/mL

CC(C)(C)C(=O)O/N=C(\N)Cc1ccc(-c2csnn2)cc1 [MB6]
EC50: 6.48 µg/mL (≈ 20.4 µM)

N/C(Cc1ccc(-c2csnn2)cc1)=N\OC(=O)C1CC1 [MB7]
EC50: > 20 µg/mL

CC(=O)O/N=C(\N)Cc1ccc(-c2csnn2)cc1 [MB8]
EC50: > 20 µg/mL

CC(C)(C)CC(=O)O/N=C(\N)C1(c2ccc(Cl)cc2Cl)CC1 [MB9]
EC50: > 20 µg/mL

CC(=O)O/N=C(\N)COc1ccc(-c2nnco2)cc1 [MB10]
EC50: > 20 µg/mL

CC(C)(C)C(=O)O/N=C(\N)COc1ccc(Cl)cc1Cl [MB11]
EC50: > 20 µg/mL

CCC(=O)O/N=C(\N)COc1ccc(Cl)cc1Cl [MB12]
EC50: > 20 µg/mL

CC(C)(C)C(=O)O/N=C(\N)Cc1cccc2ccccc12 [MB13]
EC50: > 20 µg/mL

CC(C)(C)C(=O)O/N=C(\N)COc1ccc(C(C)(C)C)cc1 [MB14]
EC50: 2.6 µg/mL (≈ 8.49 µM)

CC(C)(C)C(=O)O/N=C(\N)CS(=O)(=O)c1ccc(Cl)cc1 [MB15]
EC50: > 20 µg/mL
